# Measurements from patent US20100203587A1, “USE OF DNA GYRASE INHIBITORS FOR IN VITRO POLYPEPTIDE SYNTHESIS REACTIONS” (priority 2009, published 2010).
# Like-named read-outs stand apart in the source and are kept apart here.
# Columns and labels:
# [1] = system: bacterial growth from lysate; assay: Inhibition of bacterial growth from lysate in LB medium (Example 6); format: cell-based; conditions: 16 hours; for OD595 (cell density): 37° C.
# bacterial strains = conditions: cited from earlier work; for minimum inhibitory concentration (According to literature): Klein et al.
# [2] = system: GM-CSF yields in cell-free reactions; assay: Cell-free protein synthesis reaction, GM-CSF yields; format: biochemical, E. coli; conditions: for Concentration with very mild impact on GM-CSF yields in cell-free reactions: FIG. 3, 60 μL scale; for Concentration without impact in cell-free reactions: GM-CSF yields
# Method: In vitro protein synthesis reactions occurred in lysates generated from a population of cells. The lysate must be generated such that it would be useful for expressing proteins. E. coli A19ΔendAΔtonAΔspeAΔtnaAΔsdaAΔsdaBΔgshAΔgorTrxBHAmet^+ was used for as the extract source cell strain.
# E. coli cells were grown in a 10 L Braun Biostat C fermentor. The cells were grown on 2YPTG media in batch mode with pH control at pH 7.0. The cells were harvested at 3.2 OD (595) at growth rate of >0.7 per hour. Cells were separated from the media by centrifugation at 6000 g, 4° C. for 25 min and the resulting cell paste was stored at −80° C. The cell paste was thawed at 4° C. in S30 buffer (10 mM TRIS-acetate pH 8.2 (Sigma-Aldrich Corp. St. Louis, Mo.), 14 mM magnesium acetate (Sigma-Aldrich), and 60 mM potassium acetate (Sigma-Aldrich)) at a ratio of 1 mL of buffer per 1 g of wet cell paste. Resuspended cells were passed through a high pressure homogenizer (Emulsiflex C-50, Avestin Inc., Ottawa, Ontario, Canada). The pressure drop was set at 20000 psi. The homogenized mixture was then centrifuged at 30000 g, 4° C. for 30 minutes. The procedure was repeated twice and the supernatant was retained both times. The mixture was incubated at 37° C. for 80 min in a rotary shaker. The lysate was then centrifuged at 20000 g, 4° C. for 30 minutes and supernatant was retained.
# The extract was pretreated with 50 μM iodoacetamide at 21° C. for 30 min. The plasmid contained the structural gene encoding the target protein and was constructed as explained above. Amino Acids were in an equimolar mixture of all 20 native amino acids.
# The 250 μL of reaction mixture is spread on the bottom of a petri dish (BD Falcon) and incubated at 30° C. in a sealed humidified incubator for 5 hours. 300 mL reaction is performed in QPlus bioreactor, 4 L in 10 L Braun Biostat C fermentor and 100 L in 200 L fermentor (Sartorius).
# [3] = system: bacterial growth in lysates used for cell-free reactions; assay: Inhibition of bacterial growth from lysate in LB medium (Example 5); format: cell-based; conditions: 20 hours; for OD595: 30° C.; for Concentration that inhibits growth: Example 5, 30° C.
# Method: 20 μl of lysate was inoculated into 2 ml LB medium, which contained 0, 0.1, 0.25, 0.5, and 1 μg/mL of Norfloxacin or 0, 1, 2.5, 5, and 10 μg/ml Coumermycin A1 and was incubated at 30° C. by shaking at 300 rpm. OD595 was assayed after incubation for 20 hours.
# Clostridium difficile = Clostridium difficile (Shungu et al.); cited from earlier work
# [4] = system: hepatic nonprotein sulfhydryl groups (mainly reduced glutathione); conditions: in vivo and in vitro studies using rats (Lake et al.; Fernyhough et al.); cited from earlier work
compound,measurement,setting,value
O=C(O)c1cn(C2CC2)c2cc(N3CCNCC3)c(F)cc2c1=O [Ciprofloxacin],Concentration that inhibits growth,"[1]; Example 6, 37° C.",1 µg/mL
same,minimum inhibitory concentration (According to literature),bacterial strains,1 (1) μg/ml
same,minimum inhibitory concentration (According to literature),bacterial strains; listed as ciprofloxacin,about 1 μg/ml
CCn1cc(C(=O)O)c(=O)c2cc(F)c(N3CCNCC3)cc21 [Norfloxacin],Concentration that inhibits growth (According to literature),bacterial strains; most gastrointestinal strains tested (Shungu et al.),0.008 to 1 µg/mL
same,Concentration with very mild impact on GM-CSF yields in cell-free reactions,[2],up to 2.5 μg/ml
same,Concentration without impact in cell-free reactions,[2],2.5 µg/mL
same,OD595,[3]; 0.1 μg/ml,1.8
same,OD595,[3]; 0.25 μg/ml,1.3
same,OD595,[3]; 0.5 μg/ml,1.2
same,OD595,[3]; 1 μg/ml,0.06
same,Concentration that inhibits growth,[3],1 µg/mL
same,inhibitory concentration (literature),Clostridium difficile,1 to 128 µg/mL
CO[C@@H]1[C@@H](OC(N)=O)[C@@H](O)[C@H](Oc2ccc3c(O)c(NC(=O)c4ccc(O)c(CC=C(C)C)c4)c(=O)oc3c2C)OC1(C)C [Novobiocin],OD595 (cell density),[1]; 10 μg/ml,0.003
same,OD595 (cell density),[1]; 25 μg/ml,0.17
same,OD595 (cell density),[1]; 50 μg/ml,0.08
same,OD595 (cell density),[1]; 100 μg/ml,0.1
same,OD595 (cell density),[1]; 200 μg/ml,0.13
same,Concentration that inhibits growth (According to literature),bacterial strains; different bacterial strains (Smith and Davis),100 to 300 µg/mL
same,Concentration that negatively impacts GM-CSF yields in cell-free reactions,[2]; FIG. 5,≥ 10 µg/mL
same,Effect on hepatic nonprotein sulfhydryl groups (mainly reduced glutathione),[4],depletion of hepatic nonprotein sulfhydryl groups
Coumermycin A1,Concentration that inhibits growth (According to literature),bacterial strains; some strains tested (Hooper et al.),2 to 8 µg/mL
same,Concentration with very mild impact on GM-CSF yields in cell-free reactions,[2],10 µg/mL
same,Concentration without impact in cell-free reactions,[2],10 µg/mL
same,OD595,[3]; 1 μg/ml,1.7
same,OD595,[3]; 2.5 μg/ml,1.2
same,OD595,[3]; 5 μg/ml,1.1
same,OD595,[3]; 10 μg/ml,0.2
same,Concentration that inhibits growth,[3],10 µg/mL
